Structures can show the parent of a compound that is named as a salt.
Assays:
Type in all cases: cell-based, human
K562 cells [1] = test: cell viability (XTT) of imatinib-sensitive K562 cells; settings: for viability at 500 µM: 24 hours, read-out: percentage of viable cells; for viability at 500 µM / IC50: XTT; for IC50: dose-response 5, 10, 25 and 50 μM, Example 1 (Table 1 codes); for efficacy in dose-response experiment (number of viable cells): 5, 10, 25 and 50 μM, compounds effective at concentrations as low as 5 μM
Protocol: (§1) The K562 leukemic cell line is obtained from the pleural effusion of a patient with CML. This line is a good model for studying this disease. […] The K562 and ImaR cells are cultivated at 37° C. under 5% CO2 in an RPMI 1640 medium containing 5% fetal bovine serum and supplemented with sodium pyruvate and antibiotics (penicillin-streptomycin).
(§2) FIGS. 1 to 4 reflect the study of the cell viability.
(§3) After the addition of XTT reagent, the absorbance is measured at 490 nm.
as §3, §3
After adding XTT reagent, the absorbance is measured at 490 nm.

ImaR cells [2] = test: cell viability (XTT) of imatinib-resistant ImaR cells; settings: for efficacy in dose-response experiment (number of viable cells): 5, 10, 25 and 50 μM, compounds effective at concentrations as low as 5 μM; for viability at 500 µM / IC50: Homo sapiens, XTT; for viability at 500 µM: 24 hours, read-out: percentage of viable cells; for IC50: dose-response 5, 10, 25 and 50 μM, Example 1 (Table 1 codes)
Protocol: as §1, §2, §3, §3

K562 cells [3] = test: flow cytometry analysis of the cell cycle, K562 cells; settings: for proportion of cells in the G2/M phase: 24 hours, 82, 86, 112 at 2.5 μM, 15, 23, 191, 49 at 10 μM; for cells in phase G0/G1 / cells in the subG1 phase: 24 hours, imatinib 3 μM, 112 at 2.5 μM, 15, 23, 49 at 10 μM
Protocol: (§4) The x-axis of the graph of FIG. 9 corresponds to the quantity of DNA marked with propidium iodide while the y-axis corresponds to the number of cells. […] The nuclei are marked with propidium iodide, then the proportion of cells in the different phases of the cell cycle (subG1, G0/G1, S, G2/M) is determined.

ImaR cells [4] = test: flow cytometry analysis of the cell cycle, ImaR cells; settings: for proportion of cells in the G2/M phase: 24 hours, 82, 86, 112 at 2.5 μM, 15, 23, 191, 49 at 10 μM; for cells in phase G0/G1 / cells in the subG1 phase: 24 hours, imatinib 3 μM, 112 at 2.5 μM, 15, 23, 49 at 10 μM
Protocol: as §4, with “nucleii” for “nuclei”

K562 cells [5] = test: western blot of apoptosis and autophagy markers, K562 cells; settings: for expression of p62/SQSTM1: 82, 86, 112 at 2.5 μM, 15, 23, 191 at 10 μM; for LC3 cleavage (LC3-I into LC3-II): 82, 86 at 2.5 μM, 15, 23, 191, 49 at 10 μM; for type of programmed cell death induced: conclusion of Example 1, K562 and ImaR cells
Protocol: (§5) The cells are lyzed and 35 μg of proteins are separated by SDS-PAGE (12 or 14% polyacrylamide gel) and analyzed by western blot with antibodies specific to each of the markers.

ImaR cells [6] = test: western blot of apoptosis and autophagy markers, ImaR cells; settings: 24 hours; for expression of p62/SQSTM1: AICAR 1 mM, 82, 86, 112 at 2.5 μM, 15, 23, 191 at 10 μM; for LC3 cleavage (LC3-I into LC3-II): AICAR 1 mM, 82, 86 at 2.5 μM, 15, 23, 191, 49 at 10 μM
Protocol: as §5

mTOR pathway [7] = test: western blot of 4E-BP1 phosphorylation (mTOR pathway), K562 cells; settings: 24 hours, imatinib 3 μM, AICAR 1 mM, 82, 112 at 2.5 μM, 15, 23, 191 at 10 μM
Protocol: (§6) The cells are lyzed and 30 μg of proteins are separated by SDS-PAGE (13% polyacrylamide gel) and analyzed by western blot with an antibody specific to the 4E-BP1 protein. The delayed gel migration observed reflects the level of phosphorylation of 4E-BP1.

mTOR pathway [8] = test: western blot of 4E-BP1 phosphorylation (mTOR pathway), ImaR cells; settings: 24 hours, imatinib 3 μM, AICAR 1 mM, 82, 112 at 2.5 μM, 15, 23, 191 at 10 μM
Protocol: as §6

cathepsin-B [9] = test: cathepsin-B activity (z-RR-AMC) in K562 cells; settings: 24 hours, AICAR 1 mM, 82, 112 at 2.5 μM, 15, 23, 191 at 10 μM
Protocol: (§7) The cells are lyzed and 5 μg of proteins are placed in the presence of z-RR-AMC in a 96-well plate. The fluorescence emission at 460 nm resulting from the release of AMC is then recorded.

cathepsin-B [10] = test: cathepsin-B activity (z-RR-AMC) in ImaR cells; settings: 24 hours, AICAR 1 mM, 82, 112 at 2.5 μM, 15, 23, 191 at 10 μM
Protocol: as §7

caspase-9 [11] = test: caspase-9 activity (Ac-LEHD-AMC) in K562 cells
Protocol: (§8) The cells are lyzed and the caspase-9 activities are measured using 10 μg of proteins and Ac-LEHD-AMC. The fluorescence emission at 460 nm resulting from the release of AMC is then recorded.

caspase-9 [12] = test: caspase-9 activity (Ac-LEHD-AMC) in ImaR cells; settings: 24 hours, imatinib 3 μM, 112 2.5 μM, 15 and 23 10 μM
Protocol: as §8

caspase-3 [13] = test: caspase-3 activity (Ac-DEVD-AMC) in ImaR cells; settings: 24 hours, imatinib 3 μM, AICAR 1 mM, 112 at 2.5 μM, 15, 23, 49 at 10 μM
Protocol: (§9) The cells are lyzed and 10 μg of proteins are placed in the presence of Ac-DEVD-AMC in a 96-well plate. The fluorescence emission at 460 nm resulting from the release of AMC is then recorded.

caspase-3 [14] = test: caspase-3 activity (Ac-DEVD-AMC) in K562 cells; settings: 24 hours, imatinib 3 μM, AICAR 1 mM, 112 at 2.5 μM, 15, 23, 49 at 10 μM
Protocol: as §9

[15] = Homo sapiens, K562, 24 or 48 hours
[16] = K562, 24 hours, AICAR 1 mM, compounds 2.5 or 10 μM
[17] = AICAR 1 mM, compounds 2.5 or 10 μM

Compound	IC50 (K562 cells [1]; [15])	viability at 500 µM (K562 cells [1]; Homo sapiens, K562, 0.5 mM)	efficacy in dose-response experiment (number of viable cells) (K562 cells [1]; K562)	efficacy in dose-response experiment (number of viable cells) (ImaR cells [2])	viability at 500 µM (ImaR cells [2]; 0.5 mM)	IC50 (ImaR cells [2]; 24 or 48 hours)	proportion of cells in the G2/M phase (K562 cells [3])	proportion of cells in the G2/M phase (ImaR cells [4])	expression of p62/SQSTM1 (K562 cells [5]; K562, 24 hours, AICAR 1 mM)	LC3 cleavage (LC3-I into LC3-II) (K562 cells [5]; K562, 24 hours, AICAR 1 mM)	type of programmed cell death induced (K562 cells [5])	expression of p62/SQSTM1 (ImaR cells [6])	LC3 cleavage (LC3-I into LC3-II) (ImaR cells [6])	phosphorylation of 4E-BP1 (mTOR pathway [7])	phosphorylation of 4E-BP1 (mTOR pathway [8])	increase in the cathepsin-B activity (factor) (cathepsin-B [9])	increase in the cathepsin-B activity (factor) (cathepsin-B [10])	cells in phase G0/G1 (K562 cells [3])	cells in the subG1 phase (K562 cells [3])	cells in phase G0/G1 (ImaR cells [4])	further results
Cc1ccc(NC(=O)c2ccc(CN3CCN(C)CC3)cc2)cc1Nc1nccc(-c2cccnc2)n1 [imatinib, imatinib mesylate, reference compound]														totally inhibits				increase	small fraction of cells is also accumulated	not observed	cytotoxicity at 1 µM (K562 cells [1]; Homo sapiens, K562, 48 h, read-out: cell viability loss): > 50%; cell viability (ImaR cells [2]; imatinib 1 μM, 48 hours): affected only slightly; cells in the subG1 phase (ImaR cells [4]): not observed; caspase-9 activity (caspase-9 [11]; K562, 24 hours, imatinib 3 μM, 112 2.5 μM, 15 and 23 10 μM): strong increase; caspase-9 activity (caspase-9 [12]): not the case
NC(=O)c1ncn([C@@H]2O[C@H](CO)[C@@H](O)[C@H]2O)c1N [AICAR, 5-aminoimidazole-4-carboxamide-1-β-D-ribofuranoside, reference compound]			ineffective	ineffective					increase in the expression	cleaved		increase in the expression	cleaved	total reduction	total reduction	increase	increase				reduction in cell viability (K562 cells [1]; K562, 0.5 mM, 24 or 48 hours, Example 1): cell viability loss; reduction in cell viability (ImaR cells [2]; 0.5 mM, 24 or 48 hours, Example 1): cell viability loss; increase in the caspase-3 activity (factor with respect to the control) (caspase-3 [14]): incapable of inducing this activation; increase in the caspase-3 activity (factor with respect to the control) (caspase-3 [13]): incapable of inducing this activation; AMPK activation (level of phosphorylation) (K562 cells [5]; [16]): activated; mTOR pathway: phosphorylation of the ribosomal protein S6 (K562 cells [5]; [16]): massive dephosphorylation; AMPK activation (level of phosphorylation) (ImaR cells [6]; [17]): activated; mTOR pathway: phosphorylation of the ribosomal protein S6 (ImaR cells [6]; [17]): massive dephosphorylation

The next lines start with results.

IC50 (K562 cells [1]; [15])	Compound	viability at 500 µM (K562 cells [1]; Homo sapiens, K562, 0.5 mM)	efficacy in dose-response experiment (number of viable cells) (K562 cells [1]; K562)	efficacy in dose-response experiment (number of viable cells) (ImaR cells [2])	viability at 500 µM (ImaR cells [2]; 0.5 mM)	IC50 (ImaR cells [2]; 24 or 48 hours)	proportion of cells in the G2/M phase (K562 cells [3])	proportion of cells in the G2/M phase (ImaR cells [4])	expression of p62/SQSTM1 (K562 cells [5]; K562, 24 hours, AICAR 1 mM)	LC3 cleavage (LC3-I into LC3-II) (K562 cells [5]; K562, 24 hours, AICAR 1 mM)	type of programmed cell death induced (K562 cells [5])	expression of p62/SQSTM1 (ImaR cells [6])	LC3 cleavage (LC3-I into LC3-II) (ImaR cells [6])	phosphorylation of 4E-BP1 (mTOR pathway [7])	phosphorylation of 4E-BP1 (mTOR pathway [8])	increase in the cathepsin-B activity (factor) (cathepsin-B [9])	increase in the cathepsin-B activity (factor) (cathepsin-B [10])	cells in phase G0/G1 (K562 cells [3])	cells in the subG1 phase (K562 cells [3])	cells in phase G0/G1 (ImaR cells [4])	further results
~2.5 µM	CCOC(=O)c1nnn([C@@H]2O[C@H](COC(C)=O)[C@@H](OC(C)=O)[C@H]2OC(C)=O)c1-c1cccs1 [Compound 82, 1′-(4-ethoxycarbonyl-5-(2-thienyl)-[1,2,3]-triazol-1-yl)-2′,3′,5′-tri-O-acetyl-β-D-ribofuranose]	< 10%	particularly effective	particularly effective	< 10%	~2.5 µM	increase	increase	increase in the expression	cleaved	autophagy alone	increase in the expression	cleaved	total reduction	total reduction	around 2	around 2				
~10 µM	CCOC(=O)C#Cc1c(C(=O)OCC)nnn1[C@@H]1O[C@H](COC(C)=O)[C@@H](OC(C)=O)[C@H]1OC(C)=O [Compound 49, 1′-(4-ethoxycarbonyl-5-ethyl propiolate-[1,2,3]-triazol-1-yl)-2′,3′,5′-tri-O-acetyl-β-D-ribofuranose]	< 10%	particularly effective	particularly effective	< 10%	~10 µM	increase	increase		cleaved	combination of the two types of mechanisms		cleaved					reduction	very pronounced accumulation	reduction	cells in the subG1 phase (ImaR cells [4]): very pronounced accumulation; increase in the caspase-3 activity (factor with respect to the control) (caspase-3 [13]): increase; pathway relaying the induced apoptosis (caspase-9 [11]; conclusion of Example 1, K562 and ImaR cells): intrinsic pathway; PARP cleavage (fragment at 85 kDa) (K562 cells [5]; K562, 24 hours, imatinib 3 μM, 112 at 2.5 μM, 15, 23, 49 at 10 μM): appearance of the characteristic cleavage fragment at 85 kDa; PARP cleavage (fragment at 85 kDa) (ImaR cells [6]; imatinib 3 μM, 112 at 2.5 μM, 15, 23, 49 at 10 μM): appearance of the characteristic cleavage fragment at 85 kDa
~10 µM	CCOC(=O)c1nnn(C2OC(COC(C)=O)C(OC(C)=O)C(OC(C)=O)C2OC(C)=O)c1I [Compound 191, 1′-(4-ethoxycarbonyl-5-iodo-[1,2,3]-triazol-1-yl)-2′,3′,4′,6′-tetra-O-acetyl-β-D-glucopyranose]	< 10%	particularly effective	particularly effective	< 10%	~10 µM			increase in the expression	cleaved	autophagy alone	increase in the expression	cleaved			around 2	around 2				

— patent US9173892B2, “Acadesine derivatives, products and compositions including same, therapeutic uses thereof, and methods for synthesizing same” (Universite Nice Sophia Antipolis, priority 2011, dated 2015)
